Reference: PubChem BioAssay AID1259407 (Chemical Carcinogenesis Research Information System (CCRIS), 2018)
The source made the active and inactive calls. How the calls were made is not given here.

Test system: CCRIS mutagenicity, Ames/micronucleus/aberration tests
Experiment: CCRIS mutagenicity studies
[1] = Test System: AMES SALMONELLA TYPHIMURIUM, Strain/Indicator: TA98, Metabolic Activation: NONE, Method: PREINCUBATION
[2] = Test System: AMES SALMONELLA TYPHIMURIUM, Strain/Indicator: TA100, Metabolic Activation: NONE, Method: PREINCUBATION

In the case of `ClCC(Cl)Cl`, the mutagenic call (Test System: AMES SALMONELLA TYPHIMURIUM, Strain/Indicator: TA97, Metabolic Activation: HAMSTER, LIVER, S-9, AROCLOR 1254 (10%), Method: PREINCUBATION) is reported as “inactive; negative”, the mutagenic call (Test System: AMES SALMONELLA TYPHIMURIUM, Strain/Indicator: TA97, Metabolic Activation: HAMSTER, LIVER, S-9, AROCLOR 1254 (30%), Method: PREINCUBATION) is reported as “inactive; negative” and the mutagenic call (Test System: AMES SALMONELLA TYPHIMURIUM, Strain/Indicator: TA97, Metabolic Activation: NONE, Method: PREINCUBATION) is reported as “inactive; negative”. For the same molecule, the mutagenic call (Test System: AMES SALMONELLA TYPHIMURIUM, Strain/Indicator: TA97, Metabolic Activation: NONE, Method: STANDARD PLATE) was “active; positive”, the mutagenic call (Test System: AMES SALMONELLA TYPHIMURIUM, Strain/Indicator: TA97, Metabolic Activation: RAT, LIVER, S-9, AROCLOR 1254 (10%), Method: PREINCUBATION) was “inactive; negative” and the mutagenic call (Test System: AMES SALMONELLA TYPHIMURIUM, Strain/Indicator: TA97, Metabolic Activation: RAT, LIVER, S-9, AROCLOR 1254 (30%), Method: PREINCUBATION) was “inactive; negative”. The mutagenic call (Test System: AMES SALMONELLA TYPHIMURIUM, Strain/Indicator: TA97, Metabolic Activation: RAT, LIVER, S-9, AROCLOR 1254, Method: STANDARD PLATE) was “active; positive”, the mutagenic call (Test System: AMES SALMONELLA TYPHIMURIUM, Strain/Indicator: TA98, Metabolic Activation: HAMSTER, LIVER, S-9, AROCLOR 1254 (10%), Method: PREINCUBATION) was “inactive; negative” and the mutagenic call (Test System: AMES SALMONELLA TYPHIMURIUM, Strain/Indicator: TA98, Metabolic Activation: HAMSTER, LIVER, S-9, AROCLOR 1254 (30%), Method: PREINCUBATION) was “inactive; negative”. For the same molecule, the mutagenic call [1] was “inactive; negative”, the mutagenic call (Test System: AMES SALMONELLA TYPHIMURIUM, Strain/Indicator: TA98, Metabolic Activation: NONE, Method: STANDARD PLATE) was “inactive; negative” and the mutagenic call (Test System: AMES SALMONELLA TYPHIMURIUM, Strain/Indicator: TA98, Metabolic Activation: RAT, LIVER, S-9, AROCLOR 1254 (10%), Method: PREINCUBATION) was “inactive; negative”. For the same molecule, the mutagenic call (Test System: AMES SALMONELLA TYPHIMURIUM, Strain/Indicator: TA98, Metabolic Activation: RAT, LIVER, S-9, AROCLOR 1254 (30%), Method: PREINCUBATION) was “inactive; negative”, the mutagenic call (Test System: AMES SALMONELLA TYPHIMURIUM, Strain/Indicator: TA98, Metabolic Activation: RAT, LIVER, S-9, AROCLOR 1254, Method: STANDARD PLATE) was “inactive; negative” and the mutagenic call (Test System: AMES SALMONELLA TYPHIMURIUM, Strain/Indicator: TA100, Metabolic Activation: HAMSTER, LIVER, S-9, AROCLOR 1254 (10%), Method: PREINCUBATION) was “inactive; negative”. The mutagenic call (Test System: AMES SALMONELLA TYPHIMURIUM, Strain/Indicator: TA100, Metabolic Activation: HAMSTER, LIVER, S-9, AROCLOR 1254 (30%), Method: PREINCUBATION) was “inactive; negative”, the mutagenic call [2] was “inactive; negative” and the mutagenic call (Test System: AMES SALMONELLA TYPHIMURIUM, Strain/Indicator: TA100, Metabolic Activation: NONE, Method: STANDARD PLATE) was “active; positive”. The mutagenic call (Test System: AMES SALMONELLA TYPHIMURIUM, Strain/Indicator: TA100, Metabolic Activation: RAT, LIVER, S-9, AROCLOR 1254 (10%), Method: PREINCUBATION) was “inactive; negative”, the mutagenic call (Test System: AMES SALMONELLA TYPHIMURIUM, Strain/Indicator: TA100, Metabolic Activation: RAT, LIVER, S-9, AROCLOR 1254 (30%), Method: PREINCUBATION) was “inactive; negative” and the mutagenic call (Test System: AMES SALMONELLA TYPHIMURIUM, Strain/Indicator: TA100, Metabolic Activation: RAT, LIVER, S-9, AROCLOR 1254, Method: STANDARD PLATE) was “inactive; negative”. The mutagenic call (Test System: AMES SALMONELLA TYPHIMURIUM, Strain/Indicator: TA104, Metabolic Activation: NONE, Method: STANDARD PLATE) was “inactive; negative”, the mutagenic call (Test System: AMES SALMONELLA TYPHIMURIUM, Strain/Indicator: TA104, Metabolic Activation: RAT, LIVER, S-9, AROCLOR 1254, Method: STANDARD PLATE) was “active; positive” and the mutagenic call (Test System: AMES SALMONELLA TYPHIMURIUM, Strain/Indicator: TA1535, Metabolic Activation: HAMSTER, LIVER, S-9, AROCLOR 1254 (10%), Method: PREINCUBATION) was “inactive; negative”. For the same molecule, the mutagenic call (Test System: AMES SALMONELLA TYPHIMURIUM, Strain/Indicator: TA1535, Metabolic Activation: HAMSTER, LIVER, S-9, AROCLOR 1254 (30%), Method: PREINCUBATION) was “inactive; negative”, the mutagenic call (Test System: AMES SALMONELLA TYPHIMURIUM, Strain/Indicator: TA1535, Metabolic Activation: NONE, Method: PREINCUBATION) was “inactive; negative” and the mutagenic call (Test System: AMES SALMONELLA TYPHIMURIUM, Strain/Indicator: TA1535, Metabolic Activation: RAT, LIVER, S-9, AROCLOR 1254 (10%), Method: PREINCUBATION) was “inactive; negative”. The mutagenic call (Test System: AMES SALMONELLA TYPHIMURIUM, Strain/Indicator: TA1535, Metabolic Activation: RAT, LIVER, S-9, AROCLOR 1254 (30%), Method: PREINCUBATION) was “inactive; negative”, the mutagenic call (Test System: AMES SALMONELLA TYPHIMURIUM, Strain/Indicator: TA1537, Metabolic Activation: HAMSTER, LIVER, S-9, AROCLOR 1254 (10%), Method: PREINCUBATION) was “inactive; negative” and the mutagenic call (Test System: AMES SALMONELLA TYPHIMURIUM, Strain/Indicator: TA1537, Metabolic Activation: HAMSTER, LIVER, S-9, AROCLOR 1254 (30%), Method: PREINCUBATION) was “inactive; negative”. For the same molecule, the mutagenic call (Test System: AMES SALMONELLA TYPHIMURIUM, Strain/Indicator: TA1537, Metabolic Activation: NONE, Method: PREINCUBATION) was “inactive; negative”, the mutagenic call (Test System: AMES SALMONELLA TYPHIMURIUM, Strain/Indicator: TA1537, Metabolic Activation: RAT, LIVER, S-9, AROCLOR 1254 (10%), Method: PREINCUBATION) was “inactive; negative” and the mutagenic call (Test System: AMES SALMONELLA TYPHIMURIUM, Strain/Indicator: TA1537, Metabolic Activation: RAT, LIVER, S-9, AROCLOR 1254 (30%), Method: PREINCUBATION) was “inactive; negative”.

With `O=S(=O)(O)c1ccc2cc(O)ccc2c1` the mutagenic call [1] was “inactive; negative”, the mutagenic call (Test System: AMES SALMONELLA TYPHIMURIUM, Strain/Indicator: TA98, Metabolic Activation: RAT, LIVER, S-9, PHENOBARBITAL, Method: PREINCUBATION) was “inactive; negative” and the mutagenic call [2] was “inactive; negative”. For the same molecule, the mutagenic call (Test System: AMES SALMONELLA TYPHIMURIUM, Strain/Indicator: TA100, Metabolic Activation: RAT, LIVER, S-9, PHENOBARBITAL, Method: PREINCUBATION) was “inactive; negative”.

For `O=C(O)[C@@H]1Cc2c([nH]c3ccccc23)[C@@H]([C@H]2CCNC2=S)N1`, the mutagenic call (Test System: AMES SALMONELLA TYPHIMURIUM, Strain/Indicator: TA98, Metabolic Activation: NONE) was “inactive; negative”, the mutagenic call (Test System: AMES SALMONELLA TYPHIMURIUM, Strain/Indicator: TA98, Metabolic Activation: S-9) was “active; positive” and the mutagenic call (Test System: AMES SALMONELLA TYPHIMURIUM, Strain/Indicator: TA100, Metabolic Activation: NONE) was “inactive; negative”. For the same molecule, the mutagenic call (Test System: AMES SALMONELLA TYPHIMURIUM, Strain/Indicator: TA100, Metabolic Activation: S-9) was “inactive; negative”.

`O=[N+]([O-])c1ccc2c3c1ccc1cccc(c13)[C@@H]1O[C@H]21` was tested, and the mutagenic call (Test System: AMES SALMONELLA TYPHIMURIUM, Strain/Indicator: TA98(1,8-DNP6), Metabolic Activation: RAT, LIVER, S-9, PHENOBARBITAL AND 5,6-BENZOFLAVONE, Method: PREINCUBATION) was “active; positive”, the mutagenic call (Test System: AMES SALMONELLA TYPHIMURIUM, Strain/Indicator: TA98(NR), Metabolic Activation: NONE, Method: PREINCUBATION) was “active; positive” and the mutagenic call [1] was “active; positive”. The mutagenic call (Test System: AMES SALMONELLA TYPHIMURIUM, Strain/Indicator: TA98, Metabolic Activation: RAT, LIVER, S-9, PHENOBARBITAL AND 5,6-BENZOFLAVONE, Method: PREINCUBATION) was “active; positive”, the mutagenic call [2] was “active; positive” and the mutagenic call (Test System: AMES SALMONELLA TYPHIMURIUM, Strain/Indicator: TA100, Metabolic Activation: RAT, LIVER, S-9, PHENOBARBITAL AND 5,6-BENZOFLAVONE, Method: PREINCUBATION) was “active; positive”. The mutagenic call (Test System: CHINESE HAMSTER OVARY, Strain/Indicator: CHO (HGPRT)/6-THIOGUANINE, Metabolic Activation: NONE, Method: STANDARD PLATE) was “active; positive”, the mutagenic call (Test System: CHINESE HAMSTER OVARY, Strain/Indicator: CHO (HGPRT)/6-THIOGUANINE, Metabolic Activation: RAT, LIVER, S-9, AROCLOR 1254, Method: STANDARD PLATE) was “active; positive” and the mutagenic call (Test System: UDS RODENT HEPATOCYTES, Strain/Indicator: THY INCORP, Metabolic Activation: NONE, Method: AUTORADIOGRAPHY) was “active; positive”.
